Test results reported in patent publication US10532987B2, “Compounds and methods for inducing browning of white adipose tissue” (GUANGZHOU INSTITUTES OF BIOMEDICINE AND HEALTH, CHINESE …, priority 2015, dated 2020).

Tested on: Ucp1
Assay: UCP1 luciferase assay (Ucp1 up-regulation in differentiated inguinal adipocytes of Ucp1-luciferase knock-in mice)
Assay type: cell-based
Conditions: Mus musculus, Adipocyte, 48 h; at 0.3 μM; 2 days treatment; luciferase activity; read-out: Ucp1 activation fold/corresponding concentration
Method: TEST EXAMPLE 1 UCP1 Luciferase Assay
Evaluating Compounds that Induce Ucp1 Up-Regulation
Ucp1-luciferase knock-in mice will be housed in cages and fed on standard chow diets (the detailed procedures please see reference 14). The 8-week-old mice will be killed by the cervical dislocation and put into 75% alcohol for 5 minutes. The inguinal adipose tissue will be dissected out and transferred to the three 10-cm petri dishes and washed with PBS for three times. The adipose tissue will be dissected and minced on a 10-cm petri dish for several minutes and then pipetted into 20 ml 0.1% collagenase solution in 50 ml conical tubes and digested at 37° C. for 1 hour. Next, 20 ml culture medium will be added to terminate the digestion and centrifuged for 10 minutes at 1000 rpm respectively. The supernatants will be removed and the pellets re-suspended in 10 mL culture medium and plated into 10-cm plates. The cells will be left to adhere to the plates overnight and the culture medium will be changed every other day. The confluent cells will be trypsinized, counted and plated to 24-well plate (5×10^4 cells/well). The cells will be washed and re-fed the next day (as day −2). Two days later (day 0), the cells will usually become confluent and be induced to differentiate with MDIR medium. On day 2, the medium will be changed to IR medium and re-fed every 2 days. Complete differentiation is usually achieved by day 10. On day 10, the medium will be changed to the culture medium of 10% FBS/DMEM with indicated drugs along with the positive and negative controls for 2 days. The media will be removed and the cells washed with 1 ml PBS per well three times. Then 100 μl lysis buffer will be used to lyse the cells at 4° C. for 1 hour. 30 μl culture medium, 30 μl cell lysates and 60 μl Steady-Glo® Reagent were added to a well of 96-well-plate and the luminescence will be measured using a luminometer. The protein concentration will be determined using 20 μl cell lysates and specific activity of luciferase will be tabulated and data analyzed.

Structure (SMILES)	fold induction at 0.3 µM
COc1ccc(-c2csc(NC(C)=O)n2)cc1OC [Compound 29, N-(4-(3,4-dimethoxyphenyl)thiazol-2-yl)acetamide]	1.2

Same assay, conditions: Mus musculus, Adipocyte, 48 h; at 1 μM; 2 days treatment; luciferase activity; read-out: Ucp1 activation fold/corresponding concentration

Structure (SMILES)	fold induction at 1 µM
O=C(Nc1cccnc1)c1ccc(-c2csc(Nc3ccccn3)n2)cc1 [Compound 64, 4-(2-(pyridin-2-ylamino)thiazol-4-yl)-N-(pyridin-3-yl)benzamide]	1.1
Fc1ccc(-c2csc(Nc3ccccn3)n2)cc1 [Compound 22, 4-(4-fluorophenyl)-N-(pyridin-2-yl)thiazol-2-amine]	3.9
Oc1ccc(-c2csc(Nc3ccccn3)n2)cc1 [Compound 41, 4-(2-(pyridin-2-ylamino)thiazol-4-yl)phenol]	3.3
COc1ccc(-c2csc(Nc3ncccc3C)n2)cc1OC [Compound 12, 4-(3,4-dimethoxyphenyl)-N-(3-methylpyridin-2-yl)thiazol-2-amine]	1.2
CCCC(=O)Nc1ccc(-c2csc(Nc3ccccn3)n2)cc1 [Compound 39, N-(4-(2-(pyridin-2-ylamino)thiazol-4-yl)phenyl)butyramide]	3.4
CN1CCN(C(=O)c2ccc(-c3csc(Nc4ccccn4)n3)cc2)CC1 [Compound 59, (4-methylpiperazin-1-yl)(4-(2-(pyridin-2-ylamino)thiazol-4-yl)phenyl)methanone]	4
CC(=O)Nc1ccc(-c2csc(Nc3ccccn3)n2)cc1 [Compound 36, N-(4-(2-(pyridin-2-ylamino)thiazol-4-yl)phenyl)acetamide]	3.8
O=[N+]([O-])c1ccc(-c2csc(Nc3ccccn3)n2)cc1 [Compound 34, 4-(4-nitrophenyl)-N-(pyridin-2-yl)thiazol-2-amine]	3.8
COc1ccc(-c2nc(Nc3ccccn3)sc2C)cc1OC [Compound 19, 4-(3,4-dimethoxyphenyl)-5-methyl-N-(pyridin-2-yl)thiazol-2-amine]	1.6
COc1ccc(-c2csc(NC(=O)c3ccccc3)n2)cc1OC [Compound 30, N-(4-(3,4-dimethoxyphenyl)thiazol-2-yl)benzamide]	1.1
C#Cc1ccc(-c2csc(Nc3ccccn3)n2)cc1 [Compound 78, 4-(4-ethynylphenyl)-N-(pyridin-2-yl)thiazol-2-amine]	2.3
Nc1ccc(-c2csc(Nc3ccccn3)n2)cc1 [Compound 35, 4-(4-aminophenyl)-N-(pyridin-2-yl)thiazol-2-amine]	3.7
COc1ccc(-c2csc(Nc3cc4ccccc4cn3)n2)cc1OC [Compound 6, 4-(3,4-dimethoxyphenyl)-N-(isoquinolin-3-yl)thiazol-2-amine]	1.2
CS(=O)(=O)c1ccc(-c2csc(Nc3ccccn3)n2)cc1 [Compound 51, 4-(4-(methylsulfonyl)phenyl)-N-(pyridin-2-yl)thiazol-2-amine]	3.9
COc1cc(-c2csc(Nc3ccccn3)n2)cc(OC)c1OC [Compound 17, N-(pyridin-2-yl)-4-(3,4,5-trimethoxyphenyl)thiazol-2-amine]	1.9
c1ccc(Nc2nc(-c3cccnc3)cs2)nc1 [Compound 9, N-(pyridin-2-yl)-4-(pyridin-3-yl)thiazol-2-amine]	3.6
N#Cc1ccc(-c2csc(Nc3ccccn3)n2)cc1 [Compound 49, 4-(2-(pyridin-2-ylamino)thiazol-4-yl)benzonitrile]	3.9
c1ccc(Nc2nc(-c3ccc4c(c3)OCO4)cs2)nc1 [Compound 82, 4-(benzo[d][1,3]dioxol-5-yl)-N-(pyridin-2-yl)thiazol-2-amine]	2.4
O=C(c1ccc(-c2csc(Nc3ccccn3)n2)cc1)N1CCOCC1 [Compound 52, morpholino(4-(2-(pyridin-2-ylamino)thiazol-4-yl)phenyl)methanone]	5.1

Same assay, conditions: Mus musculus, Adipocyte, 48 h; at 3 μM; 2 days treatment; luciferase activity; read-out: Ucp1 activation fold/corresponding concentration

Structure (SMILES)	fold induction at 3 µM
COc1cc(OC)cc(-c2csc(Nc3ccccn3)n2)c1 [Compound 18, 4-(3,5-dimethoxyphenyl)-N-(pyridin-2-yl)thiazol-2-amine]	5.3
CC(=O)OCc1ccc(-c2csc(Nc3ccccn3)n2)cc1 [Compound 60, 4-(2-(pyridin-2-ylamino)thiazol-4-yl)benzyl acetate]	2.6
COc1ccccc1-c1csc(Nc2ccccn2)n1 [Compound 24, 4-(2-methoxyphenyl)-N-(pyridin-2-yl)thiazol-2-amine]	2.7
CC(C)(C)CNc1ccc(-c2csc(Nc3ccccn3)n2)cc1 [Compound 56, 4-(4-(neopentylamino)phenyl)-N-(pyridin-2-yl)thiazol-2-amine]	2.3
c1ccc(Nc2nc(-c3ccncc3)cs2)nc1 [Compound 26, N-(pyridin-2-yl)-4-(pyridin-4-yl)thiazol-2-amine]	3.5
CCC(=O)Nc1ccc(-c2csc(Nc3ccccn3)n2)cc1 [Compound 38, N-(4-(2-(pyridin-2-ylamino)thiazol-4-yl)phenyl)propionamide]	5
c1ccc(Nc2nc(-c3ccc(-c4ccsc4)cc3)cs2)nc1 [Compound 76, N-(pyridin-2-yl)-4-(4-(thiophen-3-yl)phenyl)thiazol-2-amine]	1.8
c1ccc(Nc2nc(-c3ccc(CN4CCCCC4)cc3)cs2)nc1 [Compound 72, 4-(4-(piperidin-1-ylmethyl)phenyl)-N-(pyridin-2-yl)thiazol-2-amine]	1.8
c1ccc(Nc2nc(-c3ccc(-c4nn[nH]n4)cc3)cs2)nc1 [Compound 77, 4-(4-(2H-tetrazol-5-yl)phenyl)-N-(pyridin-2-yl)thiazol-2-amine]	1.1
CCNC(=O)COc1ccc(-c2csc(Nc3ccccn3)n2)cc1 [Compound 47, N-ethyl-2-(4-(2-(pyridin-2-ylamino)thiazol-4-yl)phenoxy)acetamide]	2.4
CC(=O)c1ccc(-c2csc(Nc3ccccn3)n2)cc1 [Compound 73, 1-(4-(2-(pyridin-2-ylamino)thiazol-4-yl)phenyl)ethanone]	1.2
COc1ccc(-c2csc(NC(=O)c3ccccn3)n2)cc1OC [Compound 32, N-(4-(3,4-dimethoxyphenyl)thiazol-2-yl)picolinamide]	2.6
CC(=O)N1CCC(c2ccc(-c3csc(Nc4ccccn4)n3)cc2)CC1 [Compound 61, 1-(4-(4-(2-(pyridin-2-ylamino)thiazol-4-yl)phenyl)piperidin-1-yl)ethanone]	3.2
COc1ccc(-c2csc(Nc3cc(Cl)ccn3)n2)cc1OC [Compound 13, N-(4-chloropyridin-2-yl)-4-(3,4-dimethoxyphenyl)thiazol-2-amine]	1.6
O=C(NO)c1ccc(-c2csc(Nc3ccccn3)n2)cc1 [Compound 74, N-hydroxy-4-(2-(pyridin-2-ylamino)thiazol-4-yl)benzamide]	3
FC(F)(F)Oc1ccc(-c2csc(Nc3ccccn3)n2)cc1 [Compound 23, N-(pyridin-2-yl)-4-(4-(trifluoromethoxy)phenyl)thiazol-2-amine]	4
c1ccc(-c2csc(Nc3ccccn3)n2)cc1 [Compound 4, 4-phenyl-N-(pyridin-2-yl)thiazol-2-amine]	4.1
COc1cc(Br)ccc1-c1csc(Nc2ccccn2)n1 [Compound 25, 4-(4-bromo-2-methoxyphenyl)-N-(pyridin-2-yl)thiazol-2-amine]	1.3
